Data: patent EP4582432A1, “NOVEL COMPOUND AND MRI CONTRAST AGENT COMPRISING SAME” (Theranocure Co., Ltd., priority 2022, dated 2024)
Read-outs that look alike come from different tables or passages of the source.

How the values were obtained:
[1] = value marked with footnote a (footnote not given); cited from earlier work
[2] = 3.0-T, Water; value marked with footnote a (footnote not given); cited from earlier work
HSA [3] = target: T1, HSA (Homo sapiens, UniProt P02768)
Procedure: (§1) The HSA binding affinity was measured using ultrafiltration analysis.

liver = assay: 3.0T MR imaging of liver and gallbladder in normal mice versus commercial contrast agents; assay type: in vivo; details: 5min to 120min after injection, FIG. 9
[4] = Relaxability (r1 and r2) under 3.0T and 9.4T magnetic fields in water and HSA; assay type: physicochemical
HSA [5] = target: T1, HSA; assay: HSA binding affinity by ultrafiltration analysis
Procedure: as §1

C6 glioma = assay: MR imaging of brain cancer model; assay type: in vivo; details: 0.1 mmol/kg Gd-DO3A-butrol versus 0.05 mmol/kg Gd-PCTA-Ach; FIG. 8A
Procedure: After a brain cancer model was prepared using C6 glioma which is a brain cancer cell, 0.1mmol/kg of Gd-PCTA-Ach 0.1mmol/kg, Gd-PCTA-Ach 0.05mmol/kg, and Gd-DO3A-butrol were injected thereto, respectively, to obtain MR images (FIG. 8A) and CNR graphs (FIG. 8B) according to the MR images, and the results are shown in FIG. 8.

T1 sequence (P02768 25-609): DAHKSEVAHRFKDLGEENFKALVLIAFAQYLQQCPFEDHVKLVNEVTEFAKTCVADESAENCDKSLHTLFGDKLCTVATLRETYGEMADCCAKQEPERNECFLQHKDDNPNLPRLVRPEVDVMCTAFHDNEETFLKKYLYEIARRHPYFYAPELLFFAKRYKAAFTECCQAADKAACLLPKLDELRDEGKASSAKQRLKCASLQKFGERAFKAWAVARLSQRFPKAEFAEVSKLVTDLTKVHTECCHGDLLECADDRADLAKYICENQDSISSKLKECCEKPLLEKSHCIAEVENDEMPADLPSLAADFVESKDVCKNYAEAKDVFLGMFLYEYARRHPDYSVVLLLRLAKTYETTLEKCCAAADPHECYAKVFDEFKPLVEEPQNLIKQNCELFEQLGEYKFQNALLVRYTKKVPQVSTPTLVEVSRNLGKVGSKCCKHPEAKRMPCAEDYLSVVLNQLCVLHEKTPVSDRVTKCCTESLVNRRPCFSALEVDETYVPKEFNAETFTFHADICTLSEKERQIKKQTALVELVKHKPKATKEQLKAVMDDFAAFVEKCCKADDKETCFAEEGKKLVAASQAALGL
Excerpt for Hydrophilicity (log P): The Log P value is a value for evaluating the hydrophilicity. When the P value is smaller than 1, the Log P value becomes negative to indicate the hydrophilicity. When the P value is greater than 1, the Log P value becomes positive to indicate lipophilicity.

Compound	log P (log Co/Cw) [1]	r1 [2]	HSA bindin g affinity (%) (HSA [3])	gallbladder contrast enhancement over time (liver)	r1 ([4]; 3.0-T, HSA)	r2 ([4]; 3.0-T, HSA)	r1 ([4]; 3.0-T, Water)	r2 ([4]; 3.0-T, Water)	r1 ([4]; 9.4-T, Water)	r2 ([4]; 9.4-T, Water)	HSA bindin g affinity (%) (HSA [5])	log P (log Co/Cw) (Hydrophilicity (log P))	brightness in MR image (C6 glioma)
O=C(CCC(C(=O)[O-])N1CCN(C(CCC(=O)NCC(O)CO)C(=O)[O-])Cc2cccc(n2)CN(C(CCC(=O)NCC(O)CO)C(=O)[O-])CC1)NCC(O)CO.[Gd+3] (stereo not shown) [Gadopiclenol]	-4.2	11.3 mM⁻¹ s⁻¹											
O=C([O-])CN(CCN(CC(=O)[O-])CC(=O)[O-])CCN(CC(=O)[O-])C(COCc1ccccc1)C(=O)[O-].[Gd+3] (stereo not shown) [Gd-BOPTA]			15.0%	initially enhanced, and then was observed to decrease slowly	5.8 ± 0.2 mM⁻¹ s⁻¹	9.0 ± 0.3 mM⁻¹ s⁻¹	5.1 ± 0.02 mM⁻¹ s⁻¹	6.8 ± 0.4 mM⁻¹ s⁻¹	6.1 ± 1.1 mM⁻¹ s⁻¹	8.1 ± 1.4 mM⁻¹ s⁻¹			
CCOc1ccc(C[C@@H](CN(CCN(CC(=O)[O-])CC(=O)[O-])CC(=O)[O-])N(CC(=O)[O-])CC(=O)[O-])cc1.[Gd+3].[Na+].[Na+] [Gd-EOB-DTPA]				initially enhanced, and then was observed to decrease slowly	7.7 ± 0.1 mM⁻¹ s⁻¹	11.1 ± 0.04 mM⁻¹ s⁻¹	6.5 ± 0.04 mM⁻¹ s⁻¹	7.3 ± 0.4 mM⁻¹ s⁻¹	7.4 ± 1.4 mM⁻¹ s⁻¹	10.7 ± 1.9 mM⁻¹ s⁻¹	8.9%	-2.9	
Gd-DO3A-butrol					4.3 ± 0.1 mM⁻¹ s⁻¹	6.5 ± 0.1 mM⁻¹ s⁻¹	4.3 ± 0.2 mM⁻¹ s⁻¹	5.5 ± 0.02 mM⁻¹ s⁻¹	4.9 ± 0.9 mM⁻¹ s⁻¹	6.4 ± 1.1 mM⁻¹ s⁻¹	3.4%	-3.1	comparable
